The target of test [1] is mutEGFR (D770_N771insSVD) (Homo sapiens, UniProt P00533, INS767SVD). In words: Exon20-mutant-EGFR (D770_N771insSVD) TR-FRET kinase assay. In kind it is biochemical. The following applies: 2 mM ATP, 15 min preincubation. The method, boiled down: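 GST-fused human EGFR fragment R669-A1210 carrying the SVD insertion, Sf9-expressed, typically 15 pg/μl, was preincubated with compound for 15 min at 22° C in pH 7.0 Hepes/MgCl2 buffer. Phosphorylation was read by HTRF (665/620 nm ratio), normalised to no-inhibitor and no-enzyme controls.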
Background: In TR-FRET formats the signal depends on donor and acceptor labels being close together.

Test [2] has as its target mutEGFR (D770_N771insNPG, T790). In words: mutEGFR (D770_N771insNPG, T790) kinase assay. In kind it is biochemical, human.
In test [3] the test system is BA/F3 (insSVD) cells. Briefly: Ba/F3 cell survival assay (Cell Titer-Glo), EGFR-insSVD. Format: cell-based. The following applies: Mus musculus, BaF3, 48 h, without IL-3, with EGF. The method, boiled down: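 Viability read by CellTiter-Glo luminescence after 48 h compound exposure at 37° C, 4000 cells/well. Retrovirally transduced, puromycin-selected Ba/F3 lines carrying EGFR-insSVD ± T790M grew IL-3-free with 10 ng/mL EGF for 2 days beforehand; compound delivered by 100 nL pin.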
On the technique in general: ATP-based viability assays read luminescence as a measure of living cells.

Chain of mutEGFR (D770_N771insNPG, T790) (P00533 with tags, fused parts or gaps INS770NPG limits assumed): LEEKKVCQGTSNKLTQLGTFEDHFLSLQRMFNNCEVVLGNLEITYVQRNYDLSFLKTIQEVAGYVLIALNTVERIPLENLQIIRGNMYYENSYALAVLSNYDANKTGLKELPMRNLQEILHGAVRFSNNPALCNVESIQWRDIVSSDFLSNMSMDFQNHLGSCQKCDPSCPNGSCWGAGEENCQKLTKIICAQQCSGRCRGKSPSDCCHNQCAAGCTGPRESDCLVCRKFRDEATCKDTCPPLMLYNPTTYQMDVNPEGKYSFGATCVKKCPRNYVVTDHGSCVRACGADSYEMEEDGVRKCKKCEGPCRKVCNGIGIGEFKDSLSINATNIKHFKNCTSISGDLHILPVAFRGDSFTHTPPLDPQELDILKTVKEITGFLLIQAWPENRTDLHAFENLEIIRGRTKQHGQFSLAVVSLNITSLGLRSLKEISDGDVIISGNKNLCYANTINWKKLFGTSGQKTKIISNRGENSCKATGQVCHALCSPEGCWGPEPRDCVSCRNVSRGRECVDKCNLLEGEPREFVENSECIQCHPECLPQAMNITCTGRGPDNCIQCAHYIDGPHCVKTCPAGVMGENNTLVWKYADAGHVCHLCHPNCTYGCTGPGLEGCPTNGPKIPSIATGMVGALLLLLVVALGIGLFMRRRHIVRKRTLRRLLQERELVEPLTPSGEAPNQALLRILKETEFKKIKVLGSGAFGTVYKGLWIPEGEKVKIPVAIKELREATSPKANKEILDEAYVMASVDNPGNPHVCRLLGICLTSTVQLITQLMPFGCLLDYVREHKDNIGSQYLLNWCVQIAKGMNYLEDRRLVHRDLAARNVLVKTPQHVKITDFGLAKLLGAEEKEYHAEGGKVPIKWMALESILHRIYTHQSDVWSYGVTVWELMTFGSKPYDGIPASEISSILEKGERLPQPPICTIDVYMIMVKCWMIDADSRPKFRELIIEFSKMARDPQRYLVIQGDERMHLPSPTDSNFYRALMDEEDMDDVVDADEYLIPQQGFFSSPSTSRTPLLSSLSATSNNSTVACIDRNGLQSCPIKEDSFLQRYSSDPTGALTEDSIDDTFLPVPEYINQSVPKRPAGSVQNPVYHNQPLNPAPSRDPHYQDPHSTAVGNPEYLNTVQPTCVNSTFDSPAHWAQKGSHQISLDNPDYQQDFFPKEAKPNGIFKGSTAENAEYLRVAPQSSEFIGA
Chain of mutEGFR (D770_N771insSVD) (P00533 with tags, fused parts or gaps INS767SVD limits assumed): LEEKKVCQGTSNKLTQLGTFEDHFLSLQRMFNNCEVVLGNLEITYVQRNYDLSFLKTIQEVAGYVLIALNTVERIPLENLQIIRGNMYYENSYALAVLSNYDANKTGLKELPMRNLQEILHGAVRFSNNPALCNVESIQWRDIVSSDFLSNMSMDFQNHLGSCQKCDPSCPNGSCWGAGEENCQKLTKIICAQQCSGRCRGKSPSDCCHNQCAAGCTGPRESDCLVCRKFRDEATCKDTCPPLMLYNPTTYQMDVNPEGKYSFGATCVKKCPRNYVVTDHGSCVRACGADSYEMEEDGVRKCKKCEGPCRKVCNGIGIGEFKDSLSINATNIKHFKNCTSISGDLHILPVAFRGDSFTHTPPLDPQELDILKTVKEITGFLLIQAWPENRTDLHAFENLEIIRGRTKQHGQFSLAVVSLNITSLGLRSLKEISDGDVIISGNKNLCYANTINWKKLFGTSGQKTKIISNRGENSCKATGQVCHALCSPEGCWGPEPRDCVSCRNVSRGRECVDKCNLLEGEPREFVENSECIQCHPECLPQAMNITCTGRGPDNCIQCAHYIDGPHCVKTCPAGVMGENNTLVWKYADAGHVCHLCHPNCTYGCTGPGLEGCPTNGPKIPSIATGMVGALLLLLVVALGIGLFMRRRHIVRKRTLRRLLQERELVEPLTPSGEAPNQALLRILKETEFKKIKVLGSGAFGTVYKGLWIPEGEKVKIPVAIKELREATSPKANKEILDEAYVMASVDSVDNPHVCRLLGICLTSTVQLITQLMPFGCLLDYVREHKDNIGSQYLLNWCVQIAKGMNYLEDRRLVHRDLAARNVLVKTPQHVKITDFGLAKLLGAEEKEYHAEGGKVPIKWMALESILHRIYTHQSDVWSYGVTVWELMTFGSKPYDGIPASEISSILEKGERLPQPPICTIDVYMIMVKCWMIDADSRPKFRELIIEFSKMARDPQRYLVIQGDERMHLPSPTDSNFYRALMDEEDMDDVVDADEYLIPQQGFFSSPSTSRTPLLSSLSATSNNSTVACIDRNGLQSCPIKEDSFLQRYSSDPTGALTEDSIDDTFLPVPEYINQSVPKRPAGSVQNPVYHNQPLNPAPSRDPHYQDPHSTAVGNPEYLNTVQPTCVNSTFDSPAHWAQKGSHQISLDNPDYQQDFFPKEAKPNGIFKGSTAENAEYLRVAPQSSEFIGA

For `CC#CC(=O)N1CCC[C@H]1COc1cnccc1-c1[nH]c2cccnc2c1-c1ccccc1` [Example 94, 1-[(2S)-2-({[4-(3-phenyl-1H-pyrrolo[3,2-b]pyridin-2-yl)pyridin-3-yl]oxy}methyl)pyrrolidin-1-yl]but-2-yn-1-one], the IC50 – broadly, the concentration needed to halve the response being measured – in test [1] was 365 nM; in test [2], more than 1630 nM; in test [3] it was 2440 nM.
The corresponding values for `CN(C)C/C=C/C(=O)N1CCC[C@H]1COc1cnccc1-c1[nH]c2cccnc2c1-c1ccc(F)c(OC(F)(F)F)c1` [Example 107, (2E)-4-(dimethylamino)-1-[(2S)-2-{[(4-{3-[4-fluoro-3-(trifluoromethoxy)phenyl]-1H-pyrrolo[3,2-b]pyridin-2-yl}pyridin-3-yl)oxy]methyl}pyrrolidin-1-yl]but-2-en-1-one] are 94.5 nM, 342 nM and 1510 nM.
For `C=CC(=O)N1CCOCC1COc1cnccc1-c1[nH]c2cccnc2c1-c1ccccc1` (stereo not drawn) [Example 149, 1-[3-({[4-(3-phenyl-1H-pyrrolo[3,2-b]pyridin-2-yl)pyridin-3-yl]oxy}methyl)morpholin-4-yl]prop-2-en-1-one] the same measures were 775 nM, 17700 nM and 1290 nM.
In the case of `C=CC(=O)N1CCC[C@H]1COc1cncc(F)c1-c1[nH]c2cccnc2c1-c1ccccc1` [Example 109, 1-[(2S)-2-({[5-fluoro-4-(3-phenyl-1H-pyrrolo[3,2-b]pyridin-2-yl)pyridin-3-yl]oxy}methyl)pyrrolidin-1-yl]prop-2-en-1-one], the IC50 in test [1] was 0.573 nM; in test [2] it was 83.7 nM; in test [3], 46.6 nM.
For `C=CC(=O)N1CCC[C@H]1COc1cnccc1-c1[nH]c2cccnc2c1-c1cccc(CC)c1` [Example 78, 1-{(2S)-2-[({4-[3-(3-ethylphenyl)-1H-pyrrolo[3,2-b]pyridin-2-yl]pyridin-3-yl}oxy)methyl]pyrrolidin-1-yl}prop-2-en-1-one], the results for the IC50 in test [1], in test [2] and in test [3] were 1.04 nM, 2.92 nM and 80.2 nM, respectively.
Consider `C=CC(=O)N1CCC[C@H]1COc1cnccc1-c1[nH]c2c(C)ccnc2c1-c1cc(Cl)ccc1F` [Example 137, 1-{(2S)-2-[({4-[3-(5-chloro-2-fluorophenyl)-7-methyl-1H-pyrrolo[3,2-b]pyridin-2-yl]pyridin-3-yl}oxy)methyl]pyrrolidin-1-yl}prop-2-en-1-one], for which the half-inhibitory concentration (IC50) in test [1] came out at 0.724 nM; in test [2], 1.55 nM; in test [3], 25.1 nM.
`C=CS(=O)(=O)N1CCC(Oc2cnccc2-c2[nH]c3cccnc3c2-c2cc(C)ccc2F)C1` (racemic) [Example 126, 2-(3-{[(3RS)-1-(ethenesulfonyl)pyrrolidin-3-yl]oxy}pyridin-4-yl)-3-(2-fluoro-5-methylphenyl)-1H-pyrrolo[3,2-b]pyridine]: the IC50 was found to be 13.8 nM in test [1], 39.8 nM in test [2] and 807 nM in test [3].
With `CN(C)C/C=C/C(=O)N1CCC[C@H]1COc1cnccc1-c1[nH]c2cccnc2c1-c1cc(Cl)ccc1F` [Example 97, (2E)-1-{(2S)-2-[({4-[3-(5-chloro-2-fluorophenyl)-1H-pyrrolo[3,2-b]pyridin-2-yl]pyridin-3-yl}oxy)methyl]pyrrolidin-1-yl}-4-(dimethylamino)but-2-en-1-one], the results for the IC50 in test [1], in test [2] and in test [3] were 2.03 nM, 8.62 nM and 179 nM, respectively.
On to `C=CC(=O)N1CCC[C@H]1COc1cnccc1-c1[nH]c2cccnc2c1-c1cccc(F)c1F` [Example 86, 1-{(2S)-2-[({4-[3-(2,3-difluorophenyl)-1H-pyrrolo[3,2-b]pyridin-2-yl]pyridin-3-yl}oxy)methyl]pyrrolidin-1-yl}prop-2-en-1-one], for which the IC50 is 0.911 nM in test [1], 3.99 nM in test [2] and 67 nM in test [3].
Turning to `C=CC(=O)N1CCC1(C)COc1cnccc1-c1[nH]c2cccnc2c1-c1ccccc1` (racemic) [Example 145, 1-[(2RS)-2-methyl-2-({[4-(3-phenyl-1H-pyrrolo[3,2-b]pyridin-2-yl)pyridin-3-yl]oxy}methyl)azetidin-1-yl]prop-2-en-1-one], the IC50 came out at 3510 nM in test [1], 17400 nM in test [2] and 9980 nM in test [3].
For `C=CS(=O)(=O)N1CCC[C@H]1COc1cnccc1-c1[nH]c2cccnc2c1-c1ccc(F)c(OC(F)F)c1` [Example 105, 3-[3-(difluoromethoxy)-4-fluorophenyl]-2-(3-{[(2S)-1-(ethenesulfonyl)pyrrolidin-2-yl]methoxy}pyridin-4-yl)-1H-pyrrolo[3,2-b]pyridine], the IC50 in test [1] was 0.207 nM; in test [2] it was 0.537 nM; in test [3] it was 31.1 nM.
The corresponding values for `C=CC(=O)N1CCC[C@H]1COc1cncc(F)c1-c1[nH]c2cccnc2c1-c1cc(Cl)ccc1F` [Example 129, 1-{(2S)-2-[({4-[3-(5-chloro-2-fluorophenyl)-1H-pyrrolo[3,2-b]pyridin-2-yl]-5-fluoropyridin-3-yl}oxy)methyl]pyrrolidin-1-yl}prop-2-en-1-one] are 1 nM, 92.6 nM and 110 nM.
The corresponding values for `C#CC(=O)N1CCC[C@H]1COc1cnccc1-c1[nH]c2cccnc2c1-c1ccccc1` [Example 93, 1-[(2S)-2-({[4-(3-phenyl-1H-pyrrolo[3,2-b]pyridin-2-yl)pyridin-3-yl]oxy}methyl)pyrrolidin-1-yl]prop-2-yn-1-one] are 1.02 nM, 3.14 nM and 55.3 nM.
The corresponding values for `CN(C)C/C=C\C(=O)N1CCC[C@H]1COc1cnccc1-c1[nH]c2cccnc2c1-c1ccccc1` [Example 98, (2Z)-4-(dimethylamino)-1-[(2S)-2-({[4-(3-phenyl-1H-pyrrolo[3,2-b]pyridin-2-yl)pyridin-3-yl]oxy}methyl)pyrrolidin-1-yl]but-2-en-1-one] are 14.6 nM, 59.1 nM and 747 nM.
Take `C=CC(=O)N1CCC[C@H]1COc1cnccc1-c1[nH]c2c(C)ccnc2c1-c1ccccc1` [Example 135, 1-[(2S)-2-({[4-(7-methyl-3-phenyl-1H-pyrrolo[3,2-b]pyridin-2-yl)pyridin-3-yl]oxy}methyl)pyrrolidin-1-yl]prop-2-en-1-one]: the figures for the IC50 in test [1], in test [2] and in test [3] were 0.589 nM, 1.83 nM and 16.1 nM, respectively.
For `C=CC(=O)N(C)C[C@H](C)Oc1cnccc1-c1[nH]c2cccnc2c1-c1ccccc1` (stereo in doubt) [Example 133, N-methyl-N-[2-{[4-(3-phenyl-1H-pyrrolo[3,2-b]pyridin-2-yl)pyridin-3-yl]oxy}propyl]prop-2-enamide], the half-inhibitory concentration (IC50) in test [1] is 3470 nM; in test [2], 5590 nM; in test [3], 9000 nM.
The corresponding values for `C=CC(=O)N1CCC[C@H]1COc1cnccc1-c1[nH]c2cccnc2c1-c1cccc(Cl)c1Cl` [Example 85, 1-{(2S)-2-[({4-[3-(2,3-dichlorophenyl)-1H-pyrrolo[3,2-b]pyridin-2-yl]pyridin-3-yl}oxy)methyl]pyrrolidin-1-yl}prop-2-en-1-one] are 0.5 nM, 3.64 nM and 55.7 nM.

Source of the values: patent publication US20260035365A1, “1H-PYRROLO[3,2-B]PYRIDINE DERIVATIVES AS IRREVERSIBLE INHIBITORS OF MUTANT EGFR FOR THE TREATMENT OF CANCER” (Bayer Aktiengesellschaft, priority 2022, published 2026).
